Patent publication US20080269201A1, “Azepane- or Azocane-Substituted Pyrazoline Derivatives, Their Preparation and Use as Medicaments” (LABORATORIOS DEL DR. ESTEVE, S.A., priority 2005, published 2008)

Legend:
[1] = biological target: T1, recombinant human cannabinoid 1 receptor (CB1), CHO cell membranes (Homo sapiens, UniProt P21554); assay: [35S]GTPγS binding assay, antagonism against WIN 55,212-2; type: biochemical; conditions: compound at 1 μM against WIN 55,212-2 dose response; 100% = effect of internal standard CB1-antagonist
T1 construct: expressed in transfected cells; membranes prepared
Description: Chinese hamster ovary (CHO) cells stably expressing recombinant human cannabinoid 1 receptor (CB1) were cultured in nutrient mixture Ham's F 12 supplemented with 10% heat-inactivated fetal bovine serum, 2 mM L-glutamine, 50 U/ml penicillin, 50 U/ml streptomycin and 0.5 mg/ml geneticin. In order to obtain cells, culture flasks were washed twice with phosphate buffered saline and scraped. Then, cells were collected by centrifugation (200×g, 10 min) and stored dry at −80° C. Cells were homogenized in ice-cold 20 mM HEPES, 10 mM EDTA (pH 7.5) and centrifuged at 40,000×g for 15 min at 4° C. The pellet was resuspended in 20 mM HEPES, 0.1 mM EDTA (pH 7.5) and centrifuged for 15 min at 4° C. The final pellet was resuspended in 20 mM HEPES, 0.1 mM EDTA (pH 7.5), and divided in aliquots and stored at −80° C. until use.
The reaction was performed in 96-well plates. Membranes (15 µg protein/well) were incubated for 60 min at 30° C. in buffer (50 mM HEPES, 100 mM KCl, 5 mM MgCl2, 1 mM EDTA, 0.1% wt/vol bovine serum albumin, […], saponin (10 μg/ml), 0.5 nM [^35S]GTPγS, pH 7.4) with compound at 1 μM final concentration in either the absence or presence of dose response curve of agonist WIN 55, 212-2 between 3 nM and 3 μM. The incubation was terminated by rapid filtration through Millipore Multiscreen glass fiber FB, and rinsed two-times with ice-cold assay buffer. Filter plates were dried and 30 μl of scintillation liquid was added. Radioactivity was determined using Wallac Microbeta Trilux. Each experiment was performed at least in duplicate. A WIN 55, 212-2 dose-response was systematically performed.
The average of basal [^35S]GTPγS binding was subtracted from all binding data. In order to compare the antagonism results from one screening campaign to another one, the difference between the maximal agonist effect of WIN 55, 212-2 alone, and the maximal antagonism effect due to WIN 55, 212-2 with an internal standard CB1-antagonist was defined as 100%.
The determination of cannabinoid activity in-vivo was determined as described above.

[2] = biological target: T2, transfected human CB1 receptor (Homo sapiens, UniProt P21554); assay: In-vitro determination of affinity to CB1/CB2 receptors, radioligand [3H]-CP55940; conditions: binding to CB1/CB2 receptors as described, table does not name the subtype, text points to CB1
T2 construct: purchased Receptor Biology, Inc
Description: The in-vitro determination of the affinity of the inventive quaternary ammonium salts of substituted pyrazoline compounds to CB1/CB2-Rezeptors is carried out as described in the publication of Ruth A. Ross, Heather C. Brockie et al., “Agonist-inverse agonist characterization at CB1 and CB2 cannabinoid receptors of L-759633, L759656 and AM630”, British Journal of Pharmacology, 126, 665-672, (1999), whereby the transfected human CB1 and CB2 receptors of Receptor Biology, Inc. are used. The radioligand used for both receptors is [^3H]-CP55940. The respective parts of the description are hereby incorporated by reference and forms part of the present disclosure.
The affinity of the inventive substituted pyrazoline compounds to CB1/CB2 receptors was determined as described above.

[3] = In vivo testing for antiobesic activity, acute treatment; conditions: rats, acute oral administration, HCl-salts; body weight difference vs control
Description: Normally handled rats were habituated to a reversed cycle 12/12 h, and the compound as well as saline was acutely orally administered. After administration the cumulated food intake (g) was measured at 6 h and 23 h. Following that the difference in body weight between control and compound treated animals was measured.

T1 sequence (P21554 whole entry): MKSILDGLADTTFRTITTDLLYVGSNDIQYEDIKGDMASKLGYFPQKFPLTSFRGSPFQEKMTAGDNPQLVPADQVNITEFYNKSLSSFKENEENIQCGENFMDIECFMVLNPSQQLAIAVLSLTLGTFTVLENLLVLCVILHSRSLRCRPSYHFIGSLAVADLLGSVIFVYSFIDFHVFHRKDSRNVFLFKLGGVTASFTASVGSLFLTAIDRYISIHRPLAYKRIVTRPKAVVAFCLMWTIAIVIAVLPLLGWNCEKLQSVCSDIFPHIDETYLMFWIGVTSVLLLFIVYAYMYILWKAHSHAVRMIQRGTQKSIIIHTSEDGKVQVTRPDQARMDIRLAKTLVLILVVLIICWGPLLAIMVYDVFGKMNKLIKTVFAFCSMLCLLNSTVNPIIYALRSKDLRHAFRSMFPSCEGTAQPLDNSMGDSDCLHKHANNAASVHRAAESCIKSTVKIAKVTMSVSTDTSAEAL
T2 sequence (P21554 whole entry): as above

| Antagonism (%) [1] [%] | SMILES | IC50 [2] [nM] | Antiobesic activity (reducing weight) [3] |
| --- | --- | --- | --- |
| 83 ± 6 | C[C@H]1C(C(=O)NN2CCCCCC2)=NN(c2ccc(Cl)cc2Cl)[C@H]1c1ccc(F)cc1.Cl (relative stereo) [7 (HCl), cis-N-(azepan-1-yl)-5-(4-fluorophenyl)-1-(2,4-dichlorophenyl)-4-methyl-4,5-dihydro-1H-pyrazole-3-carboxamide hydrochloride] | 122 |  |
| 99 ± 5 | C[C@H]1C(C(=O)NN2CCCCCC2)=NN(c2ccc(Cl)cc2Cl)[C@H]1c1ccc(Cl)cc1.Cl (relative stereo) [Example 1, cis-N-(azepan-1-yl)-5-(4-chlorophenyl)-1-(2,4-dichlorophenyl)-4-methyl-4,5-dihydro-1H-pyrazole-3-carboxamide hydrochloride] | 7.9 ± 2.8 | active in this model, reducing weight |

Continued, molecule first:

| SMILES | Antagonism (%) [1] [%] | IC50 [2] [nM] | Antiobesic activity (reducing weight) [3] |
| --- | --- | --- | --- |
| COc1ccc([C@H]2[C@@H](C)C(C(=O)NN3CCCCCC3)=NN2c2ccc(Cl)cc2Cl)cc1.Cl (relative stereo) [Example 9, cis-N-(azepan-1-yl)-1-(2,4-dichlorophenyl)-5-(4-methoxyphenyl)-4-methyl-4,5-dihydro-1H-pyrazole-3-carboxamide hydrochloride] | 117 ± 5 | 61 | active in this model, reducing weight |
| C[C@H]1C(C(=O)NN2CCCCCC2)=NN(c2ccc(Cl)cc2Cl)[C@H]1c1ccc(F)cc1 [Example 7] | 52 |  |  |
| C[C@H]1C(C(=O)NN2CCCCCC2)=NN(c2ccc(Cl)cc2Cl)[C@H]1c1ccc(Br)cc1.Cl (relative stereo) [Example 5, cis-N-(azepan-1-yl)-5-(4-bromophenyl)-1-(2,4-dichlorophenyl)-4-methyl-4,5-dihydro-1H-pyrazole-3-carboxamide hydrochloride] | 133 ± 5 | 71 ± 2 | active in this model, reducing weight |
